Data: patent US20250197382A1, “KIF18A INHIBITOR” (WIGEN BIOMEDICINE TECHNOLOGY (SHANGHAI) CO., LTD., priority 2022, published 2025)

Molecular target: Recombinant human KIF18A (1-467His-tagged) protein (Homo sapiens (Human), UniProt Q8NI77)
Test: KIF18A enzyme assay (microtubule-stimulated ATPase activity, ADP-Glo)
Type: biochemical
Details: 30 nM KIF18A, ATP 75 μM, read-out: inhibitory activity against KIF18A IC50
Procedure: Biological Example 1. Assay for In Vitro Inhibition of Enzymatic Activity of KIF18A by Compounds of the Present Invention
KIF18A enzyme assay: The enzymatic activity of KIF18A after treatment with the compounds was measured by an assay of microtubule-stimulated ATPase activity. ADP generated from the ATPase reaction was measured in this assay. The compounds were serially diluted 2-fold in DMSO over a range of 22 concentration points. Recombinant human KIF18A (1-467His-tagged) protein was expressed using a baculovirus system. Concentrations of KIF18A protein, microtubules, and ATP in the reaction were optimized for a standardized homogenous enzyme assay using an ADP-Glo kinase/ATPase assay kit. A reaction buffer [(15 mM Tris, pH 7.5), 10 mM MgCl2, 0.01% PluronicF-68, 1 μM paclitaxel, and 30 μg/mL pig microtubules] was prepared. The compounds and KIF18A protein (30 nM) were added to the prepared reaction buffer, and the reaction mixture was incubated at room temperature for 15 min, followed by addition of ATP (Km, 75 μM). The resulting reaction mixture was incubated at room temperature for another 15 min. 5 μL of ADP-Glo reagent and 2.5 μL of the reaction mixture were mixed and the resulting mixture was incubated at room temperature for 40 min. 10 μL of ADP-Glo detection reagent was added and the mixture was incubated at room temperature for 40 min. Luminescence was measured using a microplate reader and compared with that of the DMSO group, and then the inhibition percentages and IC50 values of the compounds were calculated.

Chain of Recombinant human KIF18A (1-467His-tagged) protein (Q8NI77 1-467): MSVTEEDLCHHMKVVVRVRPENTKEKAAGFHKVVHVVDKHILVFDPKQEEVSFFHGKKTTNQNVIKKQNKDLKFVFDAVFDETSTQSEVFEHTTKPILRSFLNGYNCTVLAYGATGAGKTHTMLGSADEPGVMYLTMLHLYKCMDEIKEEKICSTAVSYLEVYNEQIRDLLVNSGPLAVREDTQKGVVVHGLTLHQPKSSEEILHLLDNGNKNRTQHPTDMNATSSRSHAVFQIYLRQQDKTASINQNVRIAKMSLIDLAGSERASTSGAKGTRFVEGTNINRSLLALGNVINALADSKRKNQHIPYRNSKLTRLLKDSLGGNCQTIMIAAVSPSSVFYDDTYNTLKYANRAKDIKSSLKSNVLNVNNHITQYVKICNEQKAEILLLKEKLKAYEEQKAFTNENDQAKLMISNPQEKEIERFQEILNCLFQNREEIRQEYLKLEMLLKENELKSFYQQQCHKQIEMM
Chain of Recombinant human KIF18A (1-467His-tagged) protein (P02550 whole entry partner): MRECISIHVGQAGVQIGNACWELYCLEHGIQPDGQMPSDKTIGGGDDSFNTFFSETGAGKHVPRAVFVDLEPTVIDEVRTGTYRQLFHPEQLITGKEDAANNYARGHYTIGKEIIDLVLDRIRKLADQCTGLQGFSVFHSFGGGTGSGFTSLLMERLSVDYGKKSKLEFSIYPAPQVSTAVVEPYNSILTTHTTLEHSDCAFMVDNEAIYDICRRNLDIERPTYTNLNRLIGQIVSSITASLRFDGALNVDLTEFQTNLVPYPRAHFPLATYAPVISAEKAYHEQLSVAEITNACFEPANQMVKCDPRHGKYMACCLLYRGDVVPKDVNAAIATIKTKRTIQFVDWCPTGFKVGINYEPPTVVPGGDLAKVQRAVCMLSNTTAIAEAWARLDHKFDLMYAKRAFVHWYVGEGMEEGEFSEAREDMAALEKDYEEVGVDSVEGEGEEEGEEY
Chain of Recombinant human KIF18A (1-467His-tagged) protein (P02554 whole entry partner): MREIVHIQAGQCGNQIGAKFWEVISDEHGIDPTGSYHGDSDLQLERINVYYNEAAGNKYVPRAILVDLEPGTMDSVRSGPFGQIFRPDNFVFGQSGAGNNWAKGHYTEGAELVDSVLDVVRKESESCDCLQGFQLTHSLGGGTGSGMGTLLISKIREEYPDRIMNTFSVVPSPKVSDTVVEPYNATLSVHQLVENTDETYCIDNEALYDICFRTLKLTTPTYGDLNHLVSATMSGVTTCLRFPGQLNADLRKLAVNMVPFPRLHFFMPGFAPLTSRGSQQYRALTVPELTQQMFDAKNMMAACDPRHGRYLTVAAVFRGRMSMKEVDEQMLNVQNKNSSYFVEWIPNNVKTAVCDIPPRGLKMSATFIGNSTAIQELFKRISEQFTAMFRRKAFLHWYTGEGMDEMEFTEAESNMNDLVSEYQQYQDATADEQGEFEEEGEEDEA

Structure (SMILES)	IC50 [nM]
C[C@@H]1CN(c2cc(C(=O)Nc3ccc(NS(=O)(=O)[C@@H](C)CO)cc3N3CCC4(CC3)CC4)cc3c2OCC3)CCO1 [Compound 47]	≤ 100
O=C(Nc1ccc(NS(=O)(=O)CCO)cc1N1CCC2(CC1)CC2)c1cc2c(c(N3CCC(F)(F)CC3)n1)OCCC2 [Compound 548]	≤ 100
C[C@@H]1CN(c2nc(NC(=O)c3ccc(NS(=O)(=O)[C@@H](C)CO)cc3N3CCC4(CC3)CC4)cc3c2OCC3)CCO1 [Compound 79]	≤ 100
CC(C)(CO)Nc1nc(NC(=O)c2ccc(S(=O)(=O)NCCO)cc2N2CCC3(CC2)CC3)cc2c1OCC2 [Compound 91]	≤ 100
C[C@@H](CO)S(=O)(=O)Nc1ccc(C(=O)Nc2cc3c(c(N4CCC(F)(F)CC4)c2)N(C)CC3)c(N2CCC3(CC2)CC3)c1 [Compound 269]	≤ 100
Cn1ccc2cc(C(=O)Nc3ccc(NS(=O)(=O)CCO)cc3N3CCC4(CC3)CC4)cc(N3CCC(F)CC3)c21 [Compound 425]	≤ 100
O=C(Nc1cc2c(c(N3CCC(F)(F)CC3)c1)NCCC2)c1ccc(NS(=O)(=O)CCO)cc1N1CCC2(CC1)CC2 [Compound 541]	≤ 100
O=C(Nc1cc(N2CCC(F)(F)CC2)c2scnc2c1)c1ccc(NS(=O)(=O)CCO)cc1N1CCC2(CC1)CC2 [Compound 515]	≤ 100
C[C@H](CO)NS(=O)(=O)c1ccc(C(=O)Nc2cc3c(c(N4CCO[C@H](C)C4)n2)N(C)CC3)c(N2CCC3(CC2)CC3)c1 [Compound 352]	≤ 100
C[C@@H](CO)S(=O)(=O)Nc1ccc(C(=O)Nc2cc3c(c(N4CCC(F)(F)CC4)n2)N(C)CC3)c(C2CCC3(CC2)CC3)c1 [Compound 333]	≤ 100
O=C(Nc1cc2c(c(OC3CCC3)c1)OCC2)c1ccc(S(=O)(=O)NCCO)cc1N1CCC2(CC1)CC2 [Compound 23]	≤ 100
O=C(Nc1cn2ccnc2c(N2CCC(F)(F)CC2)n1)c1ccc(NS(=O)(=O)CCO)cc1N1CCC2(CC1)CC2 [Compound 536]	≤ 100
Cn1ccc2cc(C(=O)Nc3ccc(S(=O)(=O)NCCO)cc3N3CCC4(CC3)CC4)nc(N3CCC4(CC4)C3)c21 [Compound 502]	≤ 100
CN1CCc2cc(NC(=O)c3ccc(NS(=O)(=O)CCO)cc3N3CCC4(CC3)CC4)nc(OCCC(F)(F)F)c21 [Compound 325]	≤ 100
C[C@H](CO)S(=O)(=O)Nc1ccc(NC(=O)c2cc3ccoc3c(N3CCC(F)(F)CC3)n2)c(N2CCC3(CC2)CC3)c1 [Compound 238]	≤ 100
CC1(F)CCN(c2nc(NC(=O)c3ccc(NS(=O)(=O)CCO)cc3N3CCC4(CC3)CC4)cc3c2OCC3)C1 (stereo not drawn) [Compound 72]	≤ 100
Cn1ccc2cc(NC(=O)c3ccc(NS(=O)(=O)CCO)cc3N3CCC4(CC3)CC4)nc(N3CC4CC4C3)c21 (stereo not drawn) [Compound 458]	≤ 100
CC(C)(CO)Nc1cc(C(=O)Nc2ccc(S(=O)(=O)NCCO)cc2N2CCC3(CC2)CC3)cc2ccoc12 [Compound 187]	≤ 100
O=C(Nc1ccc(NS(=O)(=O)CCO)cc1N1CCC2(CC1)CC2)c1cc2ccoc2c(N2CCC3(CC3)C2)n1 [Compound 230]	≤ 100
O=C(Nc1cc(N2CCC(F)(F)CC2)c2[nH]cnc2c1)c1ccc(NS(=O)(=O)CCO)cc1N1CCC2(CC1)CC2 [Compound 525]	≤ 100

Structure (SMILES)	IC50 [nM]
CN1CCc2cc(C(=O)Nc3ccc(NS(=O)(=O)CCO)cc3N3CCC4(CC3)CC4)nc(OCCC(F)(F)F)c21 [Compound 357]	≤ 100
Cn1ccc2cc(NC(=O)c3ccc(NS(=O)(=O)CCO)cc3N3CCC4(CC3)CC4)cc(N3CCC(C)(F)C3)c21 (stereo not drawn) [Compound 392]	≤ 100
Cn1ccc2cc(NC(=O)c3ccc(S(=O)(=O)NCCO)cc3N3CCC4(CC3)CC4)cc(OCCC(F)(F)F)c21 [Compound 405]	≤ 100
C[C@H](CO)S(=O)(=O)Nc1ccc(C(=O)Nc2cc3c(c(N4CCC(F)(F)CC4)n2)N(C)CC3)c(N2CCC3(CC2)CC3)c1 [Compound 334]	≤ 100
C[C@@H](CO)S(=O)(=O)Nc1ccc(NC(=O)c2cc3c(c(N4CCC(F)(F)CC4)c2)OCC3)c(N2CCC3(CC2)CC3)c1 [Compound 45]	≤ 100
Cn1ccc2cc(C(=O)Nc3ccc(NS(=O)(=O)CCO)cc3N3CCC4(CC3)CC4)cc(N3CC(F)(F)C3)c21 [Compound 420]	≤ 100
O=C(Nc1cc2ccoc2c(N2CC(F)(F)C2)n1)c1ccc(NS(=O)(=O)CCO)cc1N1CCC2(CC1)CC2 [Compound 196]	≤ 100
O=C(Nc1cc2ocnc2c(N2CCC(F)(F)CC2)n1)c1ccc(NS(=O)(=O)CCO)cc1N1CCC2(CC1)CC2 [Compound 518]	≤ 100
O=C(Nc1ccc(S(=O)(=O)NCCO)cc1N1CCC2(CC1)CC2)c1cc(N2CCC(F)(F)CC2)c2occc2c1 [Compound 177]	≤ 100
O=C(Nc1ccc(NS(=O)(=O)CCO)cc1N1CCC2(CC1)CC2)c1cc2ccoc2c(OCCC(F)(F)F)n1 [Compound 229]	≤ 100
C[C@@H]1CN(c2cc(NC(=O)c3ccc(NS(=O)(=O)CCO)cc3N3CCC4(CC3)CC4)cc3ccn(C)c23)CCO1 [Compound 386]	≤ 100
CN1CCc2cc(NC(=O)c3ccc(S(=O)(=O)NCCO)cc3N3CCC4(CC3)CC4)nc(N3CCOCC3)c21 [Compound 332]	≤ 100
C[C@@H]1CN(c2cc(NC(=O)c3ccc(NS(=O)(=O)CCO)cc3N3CCC4(CC3)CC4)cc3ccoc23)CCO1 [Compound 130]	≤ 100
CN1CCc2cc(NC(=O)c3ccc(S(=O)(=O)NCCO)cc3N3CCC4(CC3)CC4)nc(NC(C)(C)CO)c21 [Compound 347]	≤ 100
O=C(Nc1ccc(NS(=O)(=O)CCO)cc1N1CCC2(CC1)CC2)c1cc(N2CC3CC3C2)c2occc2c1 (stereo not drawn) [Compound 170]	≤ 100
C[C@@H](CO)S(=O)(=O)Nc1ccc(NC(=O)c2cc3c(c(N4CCC(F)(F)CC4)c2)N(C)CC3)c(N2CCC3(CC2)CC3)c1 [Compound 301]	≤ 100
Cn1ccc2cc(C(=O)Nc3ccc(S(=O)(=O)NCCO)cc3N3CCC4(CC3)CC4)cc(OCCC(F)(F)F)c21 [Compound 437]	≤ 100
O=C(Nc1cc2c(c(N3CCC(F)(F)CC3)c1)NCC2)c1ccc(NS(=O)(=O)CCO)cc1N1CCC2(CC1)CC2 [Compound 523]	≤ 100
O=C(Nc1ccc(NS(=O)(=O)CCO)cc1N1CCC2(CC1)CC2)c1cc2c(c(OC3CCC3)c1)OCC2 [Compound 39]	≤ 100

Now from value to compound:

IC50 [nM]	Structure (SMILES)
≤ 100	Cn1ccc2cc(NC(=O)c3ccc(S(=O)(=O)NCCO)cc3N3CCC4(CC3)CC4)nc(CC(C)(C)CO)c21 [Compound 475]
≤ 100	C[C@@H](CO)NS(=O)(=O)c1ccc(NC(=O)c2cc3c(c(N4CCC(F)(F)CC4)c2)N(C)CC3)c(N2CCC3(CC2)CC3)c1 [Compound 317]
≤ 100	Cn1ccc2cc(C(=O)Nc3ccc(S(=O)(=O)NCCO)cc3N3CCC4(CC3)CC4)nc(N3CC(F)(F)C3)c21 [Compound 500]
≤ 100	O=C(Nc1cc(N2CCOCC2)c2occc2c1)c1ccc(NS(=O)(=O)CCO)cc1N1CCC2(CC1)CC2 [Compound 140]
≤ 100	CN1CCc2cc(NC(=O)c3ccc(S(=O)(=O)NCCO)cc3N3CCC4(CC3)CC4)cc(N3CC(F)(F)C3)c21 [Compound 276]
≤ 100	Cn1ccc2cc(NC(=O)c3ccc(S(=O)(=O)NCCO)cc3N3CCC4(CC3)CC4)cc(N3CCC(F)CC3)c21 [Compound 409]
≤ 100	C[C@@H]1CN(c2cc(NC(=O)c3ccc(NS(=O)(=O)[C@H](C)CO)cc3N3CCC4(CC3)CC4)cc3c2OCC3)CCO1 [Compound 16]
≤ 100	CN1CCc2cc(C(=O)Nc3ccc(NS(=O)(=O)CCO)cc3N3CCC4(CC3)CC4)cc(N3CC4CC4C3)c21 (stereo not drawn) [Compound 298]
≤ 100	C[C@@H](CO)NS(=O)(=O)c1ccc(NC(=O)c2cc(N3CCC(F)(F)CC3)c3c(ccn3C)c2)c(N2CCC3(CC2)CC3)c1 [Compound 445]
≤ 100	CN1CCc2cc(NC(=O)c3ccc(NS(=O)(=O)CCO)cc3N3CCC4(CC3)CC4)cc(N3CC(F)(F)C3)c21 [Compound 260]
≤ 100	C[C@H](CO)NS(=O)(=O)c1ccc(C(=O)Nc2cc3ccn(C)c3c(N3CCC(F)(F)CC3)n2)c(N2CCC3(CC2)CC3)c1 [Compound 478]
≤ 100	CN1CCc2cc(NC(=O)c3ccc(S(=O)(=O)NCCO)cc3N3CCC4(CC3)CC4)nc(N3CCC4(CC4)C3)c21 [Compound 342]
≤ 100	C[C@H]1CN(c2nc(NC(=O)c3ccc(S(=O)(=O)NCCO)cc3N3CCC4(CC3)CC4)cc3ccoc23)CCO1 [Compound 211]
≤ 100	C[C@H](CO)NS(=O)(=O)c1ccc(C(=O)Nc2cc3c(c(N4CCC(F)(F)CC4)n2)OCC3)c(N2CCC3(CC2)CC3)c1 [Compound 94]
≤ 100	O=C(Nc1cc2c(c(N3CCC(F)(F)CC3)n1)OCCC2)c1ccc(NS(=O)(=O)CCO)cc1N1CCC2(CC1)CC2 [Compound 540]
≤ 100	CC(C)(CO)Nc1nc(NC(=O)c2ccc(NS(=O)(=O)CCO)cc2N2CCC3(CC2)CC3)cc2c1OCC2 [Compound 75]
≤ 100	O=C(Nc1cc2c(c(N3CCC(F)(F)CC3)n1)NCCC2)c1ccc(NS(=O)(=O)CCO)cc1N1CCC2(CC1)CC2 [Compound 542]
≤ 100	Cn1ccc2cc(C(=O)Nc3ccc(NS(=O)(=O)CCO)cc3N3CCC4(CC3)CC4)cc(N3CC4CC4C3)c21 (stereo not drawn) [Compound 426]
